Patent US8211883B2, “Topical delivery of phthalocyanines” (priority 2004, dated 2012)
Marks after values point to notes of the source that are not given here.

Experiments:
[1] = system: Chinese hamster V79-379 lung fibroblasts; assay: Uptake of phthalocyanines into V79 cells; conditions: for n Moles/10^6 Cells/μM (composite uptake value): V79 cells, average of all data, asterisk: listed value is for 1 μM, average would be higher
Procedure: Chinese hamster V79-379 lung fibroblasts were grown in monolayer culture in McCoy's 5A medium (Gibco Laboratories, Grand Island, N.Y.) augmented with 10% calf serum and buffered with 20 mM HEPES (pH 7.4).
Total uptake was determined by scraping the phthalocyanine-treated monolayer, collecting the cells on a glass-fiber filter, and extracting the phthalocyanine in ethanol, as previously described by Ramakrishnan, et al., 1989. (Ramakrishnan, N., M. E. Clay, M. F. Horng, A. R. Antunez, & H. H. Evans, “DNA Lesions and DNA Degradation in Mouse Lymphoma L5178Y Cells After Photodynamic Treatment Sensitized by Chloroaluminum Phthalocyanine”, Photochem. Photobiol, in press, 1989). The amount of drug was determined by absorption at 674 nm and expressed relative to the number of cells, as measured in a Coulter cell counter on an aliquot of the cell population. Controls included cells not treated with drug, medium alone, and drug-containing medium without cells.
The cells were treated with 1 μM AlPcCl (from Eastman Kodak, Rochester, N.Y.) or with phthalocyanine compositions I-VI (0.5-1.0 μM final concentration in the medium) for 18 hours by adding the appropriate volume of a 1.0 mM stock solution in dimethylformamide (DMF) to the culture medium. The growth medium was replaced with 4 mL Hank's balanced salt solution (HBSS), and the cells were irradiated. The light source was a 500 W tungsten-halogen lamp located approximately 29 inches below the surface of a glass exposure tray. The visible light administered to the cells was filtered to allow passage of only that portion of the visible spectrum above 600 nm (Lee Primary red filter No. 106, Vincent Lighting, Cleveland, Ohio). The fluence rate was approximately 0.074 kJ/m^2/s at the level of the cell monolayer.
V79 cells Chinese hamster lung fibroblasts were cultured using the cell culture methods described above. The phthalocyanines listed in table 2 were added to the cultures typically at concentrations of 1 μM, 2 μM, and/or 4 μM and incubated for 18 hours, after which aliquots of the cells were counted and other aliquots were collected on a glass fiber filter. When the filters were dry, the phthalocyanines were extracted into ethanol and the absorption determined at the peak wavelength, usually 668 nm. Values were converted to nmoles taken up by 10^6 cells, using an extinction coefficient of 2.93×10^5.

[2] = system: Chinese hamster V79-379 lung fibroblasts; assay: Clonogenic cell survival of V79 cells after photodynamic treatment; type: cell-based; conditions: for LD 90 (light dosage that kills 90% of cells): 0.5 μM, 18 hours, 675 nm red light, VII# preplated data only, XXI* not totally soluble at 0.5 mM
Procedure: Cells were irradiated at a density of approximately 2×10^6 per 25 cm^2 flask. Immediately after irradiation, the cell monolayer was treated with trypsin, and appropriate aliquots were plated in triplicate to give 100 to 200 colonies in each 10-cm Petri dish. Cell survival was determined by the ability of the cells to form colonies containing at least 50 cells. The response of cells treated with 1 μM AlPcCl and light was compared in each experiment.
Photocytotoxicity of the phthalocyanines compounds I to VI was also assessed by clonogenic assay (Table 1, FIG. 1). In all experiments, 1 μM AlPcCl was included for comparison purposes. From the survival curves (FIG. 1), the fluence reducing the cell survival to 10% (F10) was obtained. The ratio of the F10 for AlPcCl and the F10 for the test compound is recorded in Table 1. Compounds I and II appear to be nearly as efficient photosensitizers as AlPcCl, while compound IV (assayed at half the concentration) was almost twice as efficient as the standard AlPcCl. […] However, in spite of the low efficiency of compound V in inhibiting cell growth, survival measurements were made for this compound, because it was taken up into V79 cells somewhat more efficiently than compounds III and VI.
In order to take differences in cellular uptake into consideration in the assessment of the relative efficiency of these phthalocyanines as photosensitizers of V79 cells, the survival data were replotted against the product of intracellular phthalocyanine concentration and light fluence (FIG. 2). From these curves, the product of intracellular concentration and light fluence reducing survival to 10% (CF10) was obtained, and comparisons of the values for AlPcCl and the test compounds are recorded in Table 1. By this and the other criteria, compound IV appears to be the most efficient photosensitizer. However, when consideration is given to the lesser cell uptake of compound V, it appears to be about as strong a photosensitizer as compound IV.
Using the cell culture methods described above, V79 cells Chinese hamster lung fibroblasts were treated with either 0.5 or 1.0 μM of the phthalocyanines listed in Table 3. About 18 hours thereafter, the cells were irradiated with increasing doses of 675 nm broad band red light from a 500 W tungsten-halogen lamp fitted with a 600 nm high pass filter, to determine the light dosage that would kill 90% of the phthalocyanine treated cells. Where 90% of the cells were not killed, the maximum percent of cells killed were determined, (expressed as % survival) and the related light dosage recorded.

L5178Y cells = assay: Induction of apoptosis (DNA ladder) in L5178Y cells after PDT; type: cell-based, Mouse; conditions: for C × F Ld90, Minimum Demonstrated Condition to Induce Apoptosis: product of concentration and fluence
[3] = system: RIF-1 (radiation-induced fibrosarcoma) tumors; assay: PDT of RIF-1 implanted tumors; type: in vivo, C3H/HeN mice; set-up: key to Tumor Responses at 24 hours: complete: no evidence of any tumor mass in any animal; only the scar from the photodynamic therapy was evident.; near complete: evidence of any tumor mass in four or five animals; only some tumor mass in one or two animals.; substantial: a significant tumor shrinkage occurred in all animals. In some animals the tumor response was complete, yet in others the response was not complete.; moderate: some tumor shrinkage was evident in some animals. In animals with some tumor shrinkage, scar formation was evident.; slight: some tumor decrease occurred in one or two mice; conditions: 675 nm; for Doubling Time of Initial Tumor Volume after PDT: controls 4 days
Procedure: The relative effectiveness at reducing tumor volume of selected phthalocyanine compounds at a given dosage was compared in vivo. RIF-1, i.e., radiation-induced fibrosarcoma, tumors were implanted into the backs of C3H/HeN mice. One tumor was implanted per mouse. Each of the phthalocyanine compounds listed in Table 7 was sonicated and vortexed in corn oil to produce a suspension. When the tumors reached […] in diameter and 2-3 mm in thickness, each mouse received 1 mg/kg in 0.1 mL of the corn oil, of the phthalocyanine suspension. For comparison, select mice received a conventional photosensitizer; either 5 mg/kg of chloroaluminum phthalocyanine tetrasulfonate, herein also referred to as “AlPcTS” in phosphate buffered saline or 5 mg/kg of Photofrin®-II in 5% dextrose. Twenty-four hours after the photosensitizers were administered, the tumors were irradiated with visible radiation delivered by an argon-pumped dye laser. The mice that received a phthalocyanine photosensitizer received light having a wavelength of 675 nm and the mice that received the Photofrin® II photosensitizer received light having a wavelength of 630 nm. Each tumor received 135 J/cm^2 of radiation. Tumor size was measured every day using calipers. The initial tumor volume was 50±10 mm^3. Tumor volume was calculated according to the hemiellipsoid model by the formula: V=½(4π)/3×(½×(w/2))×h
• complete—no evidence of any tumor mass in any animal; only the scar from the photodynamic therapy was evident. • near complete—evidence of […] in four or five animals; only some tumor mass in one or two animals. • substantial—a significant tumor shrinkage occurred in all animals. In some animals the tumor response was complete, yet in others the response was not complete. • moderate—some tumor shrinkage was evident in some animals. In animals with some tumor shrinkage, scar formation was evident. • slight—some tumor decrease occurred in one or two mice.

[4] = system: Mouse lymphoma L5178y-R cells; assay: Clonogenic cell survival of PDT-treated LY-R cells; type: cell-based; conditions: 0.5 μM
Procedure: Mouse lymphoma L5178y-R (hereinafter also referred to as “LY-R”) cells were grown in suspension culture as described in Ramakrishnan N., Oleinick, N. L. Clay, M. E., Homg, M. F., Antunez, A. R., and Evans H. H., Photochem. Photobiol. 50, 373-378, 1989 and Agarwal, M. L., Clay, M. E., Harvey, E. J., Evans, H. H., Antunez, A. R., and Oleinick, N. L., Cancer Res., 51, 5993-5996, 1991.
The cells were used while in exponential growth. Stock solutions of either 0.5 or 1 mM of PcIV, PcXII, PcX, PcXVIII were prepared in dimethylformamide unless otherwise indicated and added to the 10 mL medium at a rate of 1 μL per mL. After allowing 18 hours for uptake of the phthalocyanine into the cells, the flasks containing the cultures were placed on a glass exposure tray above a 500-W tungsten-halogen lamp. The exposure tray was fitted with a 600-nm high-pass filter. Flasks were exposed to various fluences of red light (up to 30 kJ/m^2) at a fluence rate of approximately 74 W/m^2). After irradiation, the cells were collected by centrifugation.
For measurement of clonogenic cell survival, aliquots were plated in medium containing soft agar as described in Ramakrishnan N., Oleinick, N. L. Clay, M. E., Homg, M. F., Antunez, A. R., and Evans H. H., Photochem. Photobiol. 50, 373-378, 1989. The aliquots were plated in sufficient numbers to produce 50-200 colonies. The dishes were kept in an incubator at 37° C. in an atmosphere of 5% CO2 and 95% air for 10-14 days to allow viable cells to form colonies. Colonies were counted by eye. Controls treated with the phthalocyanine alone had plating efficiencies of about […]. The plating efficiencies of the treated cells are normalized to the plating efficiencies of control cells in each experiment. For measurement of the induction of apoptosis, DNA was isolated from the treated and control cells 2 hours after photodynamic therapy, subjected to electrophoresis on 1.5% agarose, stained with ethidium bromide, and visualized by UV transillumination, as described in Agarwal et al. The results are shown in Tables 4, 5 and 6 and in FIG. 3.

[5] = 1 mg/kg in corn oil, 135 J/cm^2, light 24 h after dosing
[6] = 1 mg/kg in corn oil, 135 J/cm^2
[7] = 5 mg/kg in phosphate buffered saline, 135 J/cm^2

Compound: C[Si](C)(CCCCNS(C)(=O)=O)O[Si]1(O[Si](C)(C)CCCCNS(C)(=O)=O)n2c3c4ccccc4c2N=C2N=C(N=c4c5ccccc5c(n41)=NC1=NC(=N3)c3ccccc31)c1ccccc12 [Compound VIII, SiPc[OSi(CH3)2(CH2)4NHSO2CH3]2]
- Uptake Into V79 Cells, 1 μM ([1]; 18 hours): 0.1 ± 0.04 n Moles/10^6 cells
- Uptake Into V79 Cells, 4 μM ([1]; 18 hours): 0.8 ± 0.01 n Moles/10^6 cells
- n Moles/10^6 Cells/μM (composite uptake value) [1]: 0.2 n Moles/10^6 Cells/μM
- Maximum Effect (% survival at kj/m^2) ([2]; 1 μM, at 30 kj/m^2): 94% at 30
- induction of apoptosis (L5178Y cells; 1 μM at a fluence of 30 kJ/m^2): did not induce apoptosis
- Tumor Responses at 24 hours [3, 5]: slight
- Doubling Time of Initial Tumor Volume after PDT [3, 6]: 4 days

Compound: CCN(CCC[Si](C)(C)O[Si]1(O)n2c3c4ccccc4c2N=C2N=C(N=c4c5ccccc5c(n41)=NC1=NC(=N3)c3ccccc31)c1ccccc12)CCN(C)C (stereo not drawn) [Compound X, HOSiPcOSi(CH3)2(CH2)3N(CH2CH3)(CH2)2N(CH3)2]
- Uptake Into V79 Cells, 1 μM ([1]; 18 hours): 0.6 ± 0.2 n Moles/10^6 cells
- Uptake Into V79 Cells, 4 μM ([1]; 18 hours): 3.3 ± 1.4 n Moles/10^6 cells
- n Moles/10^6 Cells/μM (composite uptake value) [1]: 0.7 n Moles/10^6 Cells/μM
- LD 90 (light dosage that kills 90% of cells) [2]: 7 kj/m^2
- Ld50 (fluence that reduces cell survival to 50%) [4]: 2.38 kJ/m^2
- Ld90 (fluence that reduces cell survival to 10%) [4]: 4.19 kJ/m^2
- activity relative to PcXII ([4]; from LD50/LD90 fluences): 44%
- normalized plating efficiency, AVG. ([4]; light dose 0 kJ/m^2): 100
- normalized plating efficiency, AVG. ([4]; light dose 2 kJ/m^2): 71.8
- normalized plating efficiency, AVG. ([4]; light dose 3 kJ/m^2): 30.1
- normalized plating efficiency, AVG. ([4]; light dose 4 kJ/m^2): 20.5
- normalized plating efficiency, AVG. ([4]; light dose 5 kJ/m^2): 0.43
- normalized plating efficiency, AVG. ([4]; light dose 6 kJ/m^2): 0.031
- normalized plating efficiency, AVG. ([4]; light dose 8 kJ/m^2): 0.00058
- Fluence, Minimum Demonstrated Condition to Induce Apoptosis (L5178Y cells; 0.5 μM): 6.0 kJ/m^2
- C × F Ld90, Minimum Demonstrated Condition to Induce Apoptosis (L5178Y cells; 0.5 μM): 3.0 kJ/m^2
- Fluence, Minimum Demonstrated Condition to Induce Apoptosis (L5178Y cells; 1.0 μM): 3.0 kJ/m^2
- C × F Ld90, Minimum Demonstrated Condition to Induce Apoptosis (L5178Y cells; 1.0 μM): 3.0 kJ/m^2

Compound: CN1CCN(CCC[Si](C)(C)O[Si]2(O)n3c4c5ccccc5c3N=C3N=C(N=c5c6ccccc6c(n52)=NC2=NC(=N4)c4ccccc42)c2ccccc23)CC1 (stereo not drawn) [Compound XXVIII, HOSiPcOSi(CH3)2(CH2)3NC4H8NCH3]
- Uptake Into V79 Cells, 1 μM ([1]; 18 hours): 1.2 ± 0.2 n Moles/10^6 cells
- Uptake Into V79 Cells, 2 μM ([1]; 2 μM, 18 hours): 3.6 ± 1.0 n Moles/10^6 cells
- Uptake Into V79 Cells, 4 μM ([1]; 18 hours): 11.4 ± 0.05 n Moles/10^6 cells
- n Moles/10^6 Cells/μM (composite uptake value) [1]: 1.2* n Moles/10^6 Cells/μM
- LD 90 (light dosage that kills 90% of cells) [2]: 1.8 kj/m^2
- Fluence, Minimum Demonstrated Condition to Induce Apoptosis (L5178Y cells; 0.3 μM): 3.0 kJ/m^2
- C × F Ld90, Minimum Demonstrated Condition to Induce Apoptosis (L5178Y cells; 0.3 μM): 0.9 kJ/m^2
- Tumor Responses at 24 hours [3, 5]: complete
- Doubling Time of Initial Tumor Volume after PDT [3, 6]: 24 days

Compound: chloroaluminum phthalocyanine tetrasulfonate [AlPcTS, reference compound]
- Tumor Responses at 24 hours [3, 7]: substantial
- Doubling Time of Initial Tumor Volume after PDT [3, 7]: 7 days
